The values that follow come from patent US12084445B2, “Broad-spectrum carbapenems” (VenatoRx Pharmaceuticals, Inc., priority 2018, dated 2024).

Bounds are passed on as bounds.

Holding throughout (format): cell-based
Assay [1] relates to S. aureus ATCC 33591 (methicillin-resistant). The experiment in a line: broth microdilution MIC assay, S. aureus ATCC 33591. As to conditions: Staphylococcus aureus, ATCC 33591 / MRSA; Table 3; S. aureus 33591 (MRSA); read-out: S. aureus 33591 (MRSA) MIC. Here is the method:
(§1) To determine the ability of test compounds to potentiate the inhibition of the growth of bacterial strains, classic cell-based broth microdilution MIC assays were employed. MIC assays are performed according to CLSI methods except where otherwise noted (CLSI, 2011 and CLSI, 2009). The reference strains S. aureus ATCC 29213 (methicillin sensitive), S. aureus ATCC 33591 (methicillin-resistant), E. coli ATCC 25922 (wild-type/QC strain), P. aeruginosa ATCC 27853 (wild-type/QC strain), and the clinical isolate P. aeruginosa PA 8 were used to determine the ability of the exemplary carbapenem compounds to inhibit bacterial growth. An expanded panel of methicillin resistance S. aureus (MRSA) and Pseudomonas was also used to determine the ability of exemplary carbapenem compounds to inhibit bacterial growth across a broader representation of those species. To determine activity in MRSA and in addition to S. aureus ATCC 33591, S. aureus USA 300, USA 400 and USA 600, some of the most common clones found to cause human infection, were also used. To further gauge the impact on the carbapenem compounds due to various resistance mechanisms in Pseudomonas, the following strains were included: P. aeruginosa 35151 (hyper-permeable strain), P. aeruginosa AmexAB-OprM (an efflux pump knockout), and P. aeruginosa PA 3 (a clinical isolate of reduced carbapenem susceptibility). Briefly, cryo-preserved bacterial cultures of clinical strains are streaked for isolation on appropriate agar medium, in this case Mueller Hinton II agar. Following incubation to allow formation of colonies, these plates are sealed with parafilm and stored refrigerated for up to two weeks. For preparation of assay inocula and to ensure low variability, at least 5 colonies are picked from the agar plates with an inoculating loop and aseptically transferred to a culture tube containing 3 mL of Mueller-Hinton Broth (supplemented with divalent cations to required levels based on Manufacturers' specification). The broth culture is grown for 3-5 hours at 37° C. with shaking at 200 rpm. Meanwhile, 2-fold serial dilutions of test compounds are conducted in a 96 well plate with a final volume of 75 μL per well at 2-fold the final desired concentration. After the dilution plates are set up the growing cultures are then diluted in a cuvette containing MH II broth and the optical density is measured at 600 nm. Inocula are diluted such that 75 μL of this culture in Mueller-Hinton Broth results in a starting bacterial concentration of 5×10^5 CFU/mL when added to the dilution plates. The plates are incubated 16-20 hours at 37° C. The MIC is read visually as the lowest concentration well with no bacterial growth.
(§2) Representative results are shown in Tables 3, 4, and 5 where A represents an MIC>32 μg/mL, B represents an MIC between 8 and 32 μg/mL inclusive, C represents an MIC between 1 and 4 μg/mL inclusive, and D represents an MIC of <1 μg/mL. NT=Not Tested.

For assay [2], the system named is clinical isolate P. aeruginosa PA 8. Put plainly: broth microdilution MIC assay, P. aeruginosa PA 8. The settings on record: Pseudomonas aeruginosa; Table 3; P. aeruginosa PA8. Here is the method: as §1, §2
In assay [3] the test system is E. coli ATCC 25922 (wild-type/QC strain). The experiment in a line: broth microdilution MIC assay, E. coli ATCC 25922. The settings on record: Escherichia coli, ATCC25922; Table 3; E. coli 25922; read-out: E. coli 25922 MIC. Here is the method:
as §1, §2

In assay [4] the test system is P. aeruginosa ATCC 27853 (wild-type/QC strain). The experiment in a line: broth microdilution MIC assay, P. aeruginosa ATCC 27853. As to conditions: Pseudomonas aeruginosa, ATCC27853; Table 3; P. aeruginosa 27853; read-out: P. aeruginosa 27853 MIC. Here is the method:
as §1, §2

As for `C[C@@H](O)[C@H]1C(=O)N2C(C(=O)O)=C(S[C@@H]3CCN(C4CCC(NCCCB(O)O)CC4)C3)[C@H](C)[C@H]12` (stereo partly drawn) [Example 3, (4R,5S,6S)-3-(((R)-1-(4-((3-boronopropyl)amino)cyclohexyl)pyrrolidin-3-yl)thio)-6-((R)-1-hydroxyethyl)-4-methyl-7-oxo-1-azabicyclo[3.2.0]hept-2-ene-2-carboxylic acid], the MIC in assay [1] is 8 to 32 µg/mL; in assay [2], 8 to 32 µg/mL; in assay [3], under 1 µg/mL; in assay [4] it was 8 to 32 µg/mL.

Consider `C[C@@H](O)[C@H]1C(=O)N2C(C(=O)O)=C(S[C@@H]3CCN(C[C@H]4CC[C@H](CN)CC4)C3)[C@H](C)[C@H]12` [Example 17, (4R,5S,6S)-3-(((R)-1-(((1r,4R)-4-(aminomethyl)cyclohexyl)methyl)pyrrolidin-3-yl)thio)-6-((R)-1-hydroxyethyl)-4-methyl-7-oxo-1-azabicyclo[3.2.0]hept-2-ene-2-carboxylic acid], for which the MIC was 8 to 32 µg/mL in assay [1], 1 to 4 µg/mL in assay [2], under 1 µg/mL in assay [3] and 1 to 4 µg/mL in assay [4].

For `CNC[C@H]1CC[C@H](CN2CC[C@@H](SC3=C(C(=O)O)N4C(=O)[C@H]([C@@H](C)O)[C@H]4[C@H]3C)C2)CC1` [Example 18, (4R,5S,6S)-6-((R)-1-hydroxyethyl)-4-methyl-3-(((R)-1-(((1r,4R)-4-((methylamino)methyl)cyclohexyl)methyl)pyrrolidin-3-yl)thio)-7-oxo-1-azabicyclo[3.2.0]hept-2-ene-2-carboxylic acid], the MIC in assay [1] was 8 to 32 µg/mL; in assay [2], 1 to 4 µg/mL; in assay [3], under 1 µg/mL; in assay [4], 1 to 4 µg/mL.

`C[C@@H](O)[C@H]1C(=O)N2C(C(=O)O)=C(S[C@@H]3CCN(CCN4CCNCC4)C3)[C@H](C)[C@H]12` [Example 20, (4R,5S,6S)-6-((R)-1-hydroxyethyl)-4-methyl-7-oxo-3-(((R)-1-(2-(piperazin-1-yl)ethyl)pyrrolidin-3-yl)thio)-1-azabicyclo[3.2.0]hept-2-ene-2-carboxylic acid]: the MIC in assay [1] is 8 to 32 µg/mL; in assay [2], 1 to 4 µg/mL; in assay [3], under 1 µg/mL; in assay [4], 1 to 4 µg/mL.

Consider `CN[C@H]1CC[C@H](CN2CC[C@@H](SC3=C(C(=O)O)N4C(=O)[C@H]([C@@H](C)O)[C@H]4[C@H]3C)C2)CC1` [Example 21, (4R,5S,6S)-6-((R)-1-hydroxyethyl)-4-methyl-3-(((R)-1-(((1r,4R)-4-(methylamino)cyclohexyl)methyl)pyrrolidin-3-yl)thio)-7-oxo-1-azabicyclo[3.2.0]hept-2-ene-2-carboxylic acid], for which the MIC in assay [1] is 8 to 32 µg/mL; in assay [2], 1 to 4 µg/mL; in assay [3], under 1 µg/mL; in assay [4] it was 1 to 4 µg/mL.

As to `C[C@@H](O)[C@H]1C(=O)N2C(C(=O)O)=C(S[C@@H]3CCN([C@H]4CC[C@@H](N)CC4)C3)[C@H](C)[C@H]12` [Example 23, (4R,5S,6S)-3-(((R)-1-((1r,4R)-4-aminocyclohexyl)pyrrolidin-3-yl)thio)-6-((R)-1-hydroxyethyl)-4-methyl-7-oxo-1-azabicyclo[3.2.0]hept-2-ene-2-carboxylic acid], the MIC was 8 to 32 µg/mL in assay [1], 1 to 4 µg/mL in assay [2], under 1 µg/mL in assay [3] and 1 to 4 µg/mL in assay [4].

Take `CC(C1CCNCC1)N1CC[C@@H](SC2=C(C(=O)O)N3C(=O)[C@H]([C@@H](C)O)[C@H]3[C@H]2C)C1` (stereo partly drawn) [Example 25, (4R,5S,6S)-6-((R)-1-hydroxyethyl)-4-methyl-7-oxo-3-(((3R)-1-(1-(piperidin-4-yl)ethyl)pyrrolidin-3-yl)thio)-1-azabicyclo[3.2.0]hept-2-ene-2-carboxylic acid]: the MIC is 8 to 32 µg/mL in assay [1], 1 to 4 µg/mL in assay [2], under 1 µg/mL in assay [3] and 8 to 32 µg/mL in assay [4].

As to `C[C@@H](O)[C@H]1C(=O)N2C(C(=O)O)=C(S[C@@H]3CCN(CC4CCN(CCN)CC4)C3)[C@H](C)[C@H]12` [Example 26, (4R,5S,6S)-3-(((R)-1-((1-(2-aminoethyl)piperidin-4-yl)methyl)pyrrolidin-3-yl)thio)-6-((R)-1-hydroxyethyl)-4-methyl-7-oxo-1-azabicyclo[3.2.0]hept-2-ene-2-carboxylic acid], the MIC is over 32 µg/mL in assay [1], 1 to 4 µg/mL in assay [2], under 1 µg/mL in assay [3] and 1 to 4 µg/mL in assay [4].

As to `C[C@@H](O)[C@H]1C(=O)N2C(C(=O)O)=C(S[C@@H]3CCN(C4CCN(CCN)CC4)C3)[C@H](C)[C@H]12` [Example 27, (4R,5S,6S)-3-(((R)-1-(1-(2-aminoethyl)piperidin-4-yl)pyrrolidin-3-yl)thio)-6-((R)-1-hydroxyethyl)-4-methyl-7-oxo-1-azabicyclo[3.2.0]hept-2-ene-2-carboxylic acid], the MIC in assay [1] was 8 to 32 µg/mL; in assay [2], 1 to 4 µg/mL; in assay [3], under 1 µg/mL; in assay [4], 1 to 4 µg/mL.

With `CC1CC(CN2CC[C@@H](SC3=C(C(=O)O)N4C(=O)[C@H]([C@@H](C)O)[C@H]4[C@H]3C)C2)CCN1` (stereo partly drawn) [Example 28, (4R,5S,6S)-6-((R)-1-hydroxyethyl)-4-methyl-3-(((3R)-1-((2-methylpiperidin-4-yl)methyl)pyrrolidin-3-yl)thio)-7-oxo-1-azabicyclo[3.2.0]hept-2-ene-2-carboxylic acid], the MIC was 8 to 32 µg/mL in assay [1], 1 to 4 µg/mL in assay [2], under 1 µg/mL in assay [3] and 8 to 32 µg/mL in assay [4].

Turning to `CNCc1ccc(CN2CC[C@@H](SC3=C(C(=O)O)N4C(=O)[C@H]([C@@H](C)O)[C@H]4[C@H]3C)C2)cn1` [Example 29, (4R,5S,6S)-6-((R)-1-hydroxyethyl)-4-methyl-3-(((R)-1-((6-((methylamino)methyl)pyridin-3-yl)methyl)pyrrolidin-3-yl)thio)-7-oxo-1-azabicyclo[3.2.0]hept-2-ene-2-carboxylic acid], the MIC in assay [1] was 8 to 32 µg/mL; in assay [2], 1 to 4 µg/mL; in assay [3] it was under 1 µg/mL; in assay [4], 8 to 32 µg/mL.

For `C[C@@H](O)[C@H]1C(=O)N2C(C(=O)O)=C(S[C@@H]3CCN(CC4CCNC(CN)C4)C3)[C@H](C)[C@H]12` (stereo partly drawn) [Example 30, (4R,5S,6S)-3-(((3R)-1-((2-(aminomethyl)piperidin-4-yl)methyl)pyrrolidin-3-yl)thio)-6-((R)-1-hydroxyethyl)-4-methyl-7-oxo-1-azabicyclo[3.2.0]hept-2-ene-2-carboxylic acid], the MIC in assay [1] is 8 to 32 µg/mL; in assay [2] it was 1 to 4 µg/mL; in assay [3] it was under 1 µg/mL; in assay [4] it was 8 to 32 µg/mL.

With `C[C@@H](O)[C@H]1C(=O)N2C(C(=O)O)=C(S[C@@H]3CCN(Cc4ccc(CN)c(CN)c4)C3)[C@H](C)[C@H]12` [Example 31, (4R,5S,6S)-3-(((R)-1-(3,4-bis(aminomethyl)benzyl)pyrrolidin-3-yl)thio)-6-((R)-1-hydroxyethyl)-4-methyl-7-oxo-1-azabicyclo[3.2.0]hept-2-ene-2-carboxylic acid], the MIC in assay [1] was 1 to 4 µg/mL; in assay [2], 8 to 32 µg/mL; in assay [3], under 1 µg/mL; in assay [4], 8 to 32 µg/mL.

With `C[C@@H](O)[C@H]1C(=O)N2C(C(=O)O)=C(S[C@@H]3CCN(CC4CNCCN4S(C)(=O)=O)C3)[C@H](C)[C@H]12` (stereo partly drawn) [Example 32, (4R,5S,6S)-6-((R)-1-hydroxyethyl)-4-methyl-3-(((3R)-1-((1-(methylsulfonyl)piperazin-2-yl)methyl)pyrrolidin-3-yl)thio)-7-oxo-1-azabicyclo[3.2.0]hept-2-ene-2-carboxylic acid], the MIC in assay [1], in assay [2], in assay [3] and in assay [4] was 8 to 32 µg/mL each time.
